# Experiments:
# [1] = mouse, in vivo, iv, 10 mg/kg
# [2] = tested on: non-replicating Mtb (H37Rv); test: microbe, parasite or virus in culture; assay type: cell-based; settings: Mycobacterium tuberculosis, 240 h, read-out: MIC (LORA)
# in vivo = settings: BALB/c, mouse, po, 30 mg/kg
# Mtb Erdman strain = test: BALB/c acute infection model, oral administration; assay type: in vivo, Mycobacterium tuberculosis
# [3] = tested on: intracellular Mtb CDC1551-tdTomato in macrophages (J774A.1 cells); test: Killing effect against intracellular Mtb in J774A.1 macrophages; assay type: cell-based, Mycobacterium tuberculosis; settings: at 2xMIC; for Killing of intracellular Mtb (in words): J774A.1 macrophages
# in vitro [4] = settings: monkey
# in vitro [5] = settings: human, Caco-2
# Mycobacterium smegmatis = settings: cited from earlier work
smiles,measurement,setting,value
CC[C@]1(C)C[C@@H](OC(=O)CSC(C)(C)CNC(=O)[C@H](N)CC(C)C)[C@]2(C)[C@H](C)CC[C@]3(CC[C@@H](O)[C@H]32)[C@@H](C)[C@@H]1O [UT-800 (1)],AUC0-24h,[1],"66,281 ng•h/g"
same,MIC,[2],1.04 to 3.46 µg/mL
same,Tmax,in vivo,≤ 1 h
same,Log10 cfu/mouse,"Mtb Erdman strain; 100 mg/kg, oral, 3 weeks, lungs, BALB/c mice, mean of 5",8.1E+05
same,Viable organisms persisted,"Mtb Erdman strain; 200 mg/kg, 3 weeks",5.6-5.7 log10 cfu/mouse
same,Log10 cfu/mouse,"Mtb Erdman strain; 200 mg/kg, oral, 3 weeks, lungs, BALB/c mice, mean of 5",4.4E+05
same,Log10 cfu/mouse,Mtb Erdman strain; in vivo,1.2E+06
same,Time to kill Mtb in infected macrophages,"[3]; J774A.1 cells, Mtb CDC1551-tdTomato",≤ 72 h
same,Killing of intracellular Mtb (in words),[3],kills intracellular Mtb faster than rifampicin
same,Killing of intracellular Mtb (in words),[3]; listed as 1,killed intracellular Mtb more effectively than INH and RIF
"NNC(=O)c1ccncc1 [Isoniazid (INH), Isoniazid, reference compound]",IC50 at 72 h,in vitro [4],> 200 µg/mL
same,Log reduction,"Mtb Erdman strain; 2.5 mg/kg, 3 weeks, lung burden relative to untreated control",about 4 Log10
C=C[C@]1(C)C[C@@H](OC(=O)CSC(C)(C)CNC(=O)[C@H](N)CC(C)C)[C@]2(C)[C@H](C)CC[C@]3(CCC(=O)[C@H]32)[C@@H](C)[C@@H]1O [UT-810 (2)],MIC,[2],1.04 to 3.46 µg/mL
"CO[C@H]1/C=C/O[C@@]2(C)Oc3c(C)c(O)c4c(O)c(c(/C=N/N5CCN(C)CC5)c(O)c4c3C2=O)NC(=O)/C(C)=C\C=C\[C@H](C)[C@H](O)[C@@H](C)[C@@H](O)[C@@H](C)[C@H](OC(C)=O)[C@@H]1C [Rifampicin (RIF), Rifampicin]",IC50 at 72 h,in vitro [4],> 200 µg/mL
C=C[C@]1(C)C[C@@H](OC(=O)CSC(C)(C)CNC(=O)[C@H](N)CC(C)C)[C@]2(C)[C@H](C)CC[C@]3(CC[C@@H](O)[C@H]32)[C@@H](C)[C@@H]1O [UT-820 (4)],MIC,[2],1.04 to 3.46 µg/mL
CC(=O)NC[C@H]1CN(c2ccc(N3CCOCC3)c(F)c2)C(=O)O1 [Linezolid],IC50 at 72 h,in vitro [4],> 200 µg/mL
CNC(=C[N+](=O)[O-])NCCSCc1ccc(CN(C)C)o1 [Ranitidine],"Papp A→B at 2 h, 10 µM",in vitro [5],0.237 ×10⁻⁶ cm/s
same,"efflux ratio at 2 h, 10 µM",in vitro [5],5
C=C[C@]1(C)C[C@@H](OC(=O)CSC(C)(C)CNC(=O)[C@H](N)C(C)C)[C@]2(C)[C@H](C)CC[C@]3(CCC(=O)[C@H]32)[C@@H](C)[C@@H]1O [Valnemulin],MIC,Mycobacterium smegmatis,8 to 16 µg/mL
same,IC50 at 72 h,in vitro [4],15 µg/mL
"CC[C@@H](CO)NCCN[C@@H](CC)CO [Ethambutol (EMB), Ethambutol]",IC50 at 72 h,in vitro [4],> 200 µg/mL
CC[C@]1(C)C[C@@H](OC(=O)CSC(C)(C)CNC(=O)[C@H](N)CC(C)C)[C@]2(C)[C@H](C)CC[C@]3(CCC(=O)[C@H]32)[C@@H](C)[C@@H]1O [UT-815 (3)],MIC,[2],1.04 to 3.46 µg/mL

# — article PMC6154393 (Bioorganic & medicinal chemistry, 2018)
